From PubChem BioAssay (NCI)
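All cell lines were grown in 96-well plates and treated with compound for 48 hours. GI50: concentration for 50% inhibition of growth. TGI: concentration producing complete growth inhibition.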

Key:
Assay in all cases: NCI anticancer screen, dose series, 48 h
ACHN renal = test system: ACHN renal
CAKI-1 renal = test system: CAKI-1 renal
MALME-3M melanoma = test system: MALME-3M melanoma
NCI-H226 lung = test system: NCI-H226 lung
OVCAR-8 ovarian = test system: OVCAR-8 ovarian
SK-MEL-5 melanoma = test system: SK-MEL-5 melanoma
TK-10 renal = test system: TK-10 renal
UACC-257 melanoma = test system: UACC-257 melanoma

Row | Structure (SMILES) | GI50 (ACHN renal) [µM] | TGI (ACHN renal) [µM] | GI50 (CAKI-1 renal) [µM] | TGI (CAKI-1 renal) [µM] | GI50 (MALME-3M melanoma) [µM] | TGI (MALME-3M melanoma) [µM] | GI50 (NCI-H226 lung) [µM] | TGI (NCI-H226 lung) [µM] | GI50 (OVCAR-8 ovarian) [µM] | TGI (OVCAR-8 ovarian) [µM] | GI50 (SK-MEL-5 melanoma) [µM] | TGI (SK-MEL-5 melanoma) [µM] | GI50 (TK-10 renal) [µM] | TGI (TK-10 renal) [µM] | GI50 (UACC-257 melanoma) [µM] | TGI (UACC-257 melanoma) [µM]
1 | COc1ccc(-c2cn(C)c3c2-n2cccc2C3=O)cc1O | 5.05 | 22.5 | 2.09 | 7.77 | 1.77 | 9.28 | 6.33 | 39.7 | 19.7 | > 100 | 1.4 | 5.93 | 3.05 | 8.29 | 15.9 | 32.9
2 | OCc1c(-c2cccs2)oc(-c2cccs2)c1CO | 23.8 | 72.1 | 38.2 | 94.9 | 30.1 | 94.6 | 50.3 | > 100 | 50.7 | > 100 | 39 | > 100 | 10.2 | 56.7 | 56.1 | > 100
3 | COC(=O)NC1(NC(=O)OC)NC(=O)c2ccccc2N1 |  | > 100 |  | > 100 |  | > 100 |  | > 100 |  | > 100 |  | > 100 |  | > 100 |  | > 100
4 | COc1ccc(-c2nc(NC(=O)CS(=O)(=O)c3ccc(F)cc3)sc2C)cc1 | 30 | > 100 | 24.2 | > 100 | 23 | 66.4 | 23.8 | 87.8 | 24.1 | 89.3 | 12.8 | 25.9 | 28.9 | 81.2 |  | 
5 | CN(C)Cc1ccc(NC(=O)c2cncc(C#Cc3cnc(N)c4ncccc34)c2)cc1C(F)(F)F | 1.52 | 2.89 | 3.48 | 11.5 | 0.104 | 0.956 |  |  | 1.82 | 3.85 | 1.17 | 2.41 | 1.81 | 3.31 | 0.673 | 2.53
6 | CC(C)(C)OC(=O)NCCCCCCCCCn1c2c(c3ccccc3c1=O)C(=O)c1ccccc1-2 | 27 | > 100 |  |  | 13.9 | 43 | 41 | > 100 | 56.1 | > 100 | > 100 | > 100 | 17.4 | 45.8 | > 100 | > 100
7 | CN(C)CCNC(=O)c1ccc2c(c1)oc1cc3ccccc3c(=O)n12 | 12.5 | 26 | 10.8 | 25.4 | 23.4 | 43.7 |  |  | 19.4 | 42.5 | 23.3 | 39.9 | 12.9 | 31.4 | 21.7 | 37.5
8 | CC(C)(C)OC(=O)N(CCCCN(CCCn1c2c(c3ccccc3c1=O)C(=O)c1ccccc1-2)C(=O)OC(C)(C)C)CCCn1c2c(c3ccccc3c1=O)C(=O)c1ccccc1-2 | 14.3 | > 100 | 19.9 | > 100 | > 100 | > 100 | 99.2 | > 100 | > 100 | > 100 | 48.5 | > 100 | > 100 | > 100 |  | 
